Consider nine compounds from patent US9174995B2, “Pyrrolotriazinone derivatives” (Merck Patent GmbH, priority 2012, dated 2015).

Assay type in all cases: biochemical
Assay [1] addresses T1, GST-tagged Tankyrase-1 (1023-1327 aa) (Homo sapiens, UniProt O95271).
T1 construct: GST-tagged Tankyrase-1 (1023-1327 aa)
Description: Tankyrase 1 autoparsylation assay (HTRF enzyme assay). As for the experimental part:
(§1) Biochemical Activity Testing of Tankyrase 1 and 2: Autoparsylation Assay
(§2) The autoparsylation assay is run in two steps: the enzymatic reaction in which GST-tagged Tankyrase-1, resp Tankyrase-2 transferred biotinylated ADP-ribose to itself from biotinylated NAD as co-substrate and the detection reaction where a time resolved FRET between cryptate labelled anti-GST bound to the GST tag of the enzyme and Xlent® labelled-streptavidin bound the biotin-parsylation residue is analysed. The autoparsylation activity was detectable directly via the increase in HTRF signal.
(§3) The autoparsylation assay is performed as 384-well HTRF® (Cisbio, Codolet, France) assay format in Greiner low volume nb 384-well microtiter plates and is used for high throughput screen. 250 nM GST-tagged Tankyrase-1 (1023-1327 aa), respectively about 250 nM GST-tagged Tankyrase-2 (873-1166 aa) and 5 μM bio-NAD (Biolog, Life science Inst., Bremen, Germany) as co-substrate are incubated in a total volume of 5 μl (50 mM HEPES, 4 mM Mg-chloride, 0.05% Pluronic F-68, 1.4 mM DTT, 0.5% DMSO, pH 7.7) in the absence or presence of the test compound (10 dilution concentrations) for 90 min at 30° C. The reaction is stopped by the addition of 1 μl 50 mM EDTA solution. 2 μl of the detection solution (1.6 μM SA-Xlent® (Cisbio, Codolet, France), 7.4 nM Anti-GST-K® (Eu-labelled anti-GST, Cisbio, Codolet, France) in 50 mM HEPES, 800 mM KF, 0.1% BSA, 20 mM EDTA, 0.1% CHAPS, pH 7.0) are added. After 1 h incubation at room temperature the HTRF is measured with an Envision multimode reader (Perkin Elmer LAS Germany GmbH) at excitation wavelength 340 nm (laser mode) and emission wavelengths 615 nm and 665 nm. The ratio of the emission signals is determined. The full value used is the inhibitor-free reaction. The pharmacological zero value used is XAV-939 (Tocris) in a final concentration of 5 μM. The inhibitory values (IC50) are determined using either the program Symyx Assay Explorer® or Condosseo® from GeneData.

A further assay addresses T2, His-tagged Parp-1 (Homo sapiens, UniProt P09874).
T2 construct: purchased Enzo Life Sciences GmbH, Lörrach, Germany
Description: PARP-1 autoparsylation assay (HTRF). Conditions: PARP-1 autoparsylation HTRF assay. The text has this: Description of the PARP1 Assay
Biochemical Activity Testing of PARP-1: Autoparsylation Assay
The autoparsylation assay is run in two steps: the enzymatic reaction in which His-tagged Parp-1 transfers biotinylated ADP-ribose/ADP-ribose to itself from biotinylated NAD/NAD as co-substrate and the detection reaction where a time resolved FRET between cryptate labelled anti-His antibody bound to the His tag of the enzyme and Xlent® labelled-streptavidin bound the biotin-parsylation residue is analysed. The autoparsylation activity is detectable directly via the increase in HTRF signal.
The autoparsylation assay is performed as 384-well HTRF® (Cisbio, Codolet, France) assay format in Greiner low volume nb 384-well microtiter plates. 35 nM His-tagged Parp-1 (human, recombinant, Enzo Life Sciences GmbH, Lörrach, Germany) and a mixture of 125 nM bio-NAD (Biolog, Life science Inst., Bremen, Germany) and 800 nM NAD as co-substrate are incubated in a total volume of 6 μl (100 mM Tris/HCl, 4 mM Mg-chloride, 0.01% IGEPAL® CA630, 1 mM DTT, 0.5% DMSO, pH 8, 13 ng/μl activated DNA (BPS Bioscience, San Diego, US)) in the absence or presence of the test compound (10 dilution concentrations) for 150 min at 23° C. The reaction is stopped by the addition of 4 μl of the Stop/detection solution (70 nM SA-Xlent® (Cisbio, Codolet, France), 2.5 nM Anti-His-K® (Eu-labelled anti-His, Cisbio, Codolet, France) in 50 mM HEPES, 400 mM KF, 0.1% BSA, 20 mM EDTA, pH 7.0). After 1 h incubation at room temperature the HTRF is measured with an Envision multimode reader (Perkin Elmer LAS Germany GmbH) at excitation wavelength 340 nm (laser mode) and emission wavelengths 615 nm and 665 nm. The ratio of the emission signals is determined. The full value used is the inhibitor-free reaction. The pharmacological zero value used is Olaparib (LClabs, Woburn, US) in a final concentration of 1 μM. The inhibitory values (IC50) are determined using either the program Symyx Assay Explorer® or Condosseo® from GeneData.
On the technique in general: TR-FRET usually uses a lanthanide donor and a delayed reading to cut background.

Assay [2] concerns the target T3, GST-tagged Tankyrase-2 (873-1166 aa) (Homo sapiens, UniProt Q9H2K2).
T3 construct: GST-tagged Tankyrase-2 (873-1166 aa)
Description: Tankyrase 2 autoparsylation assay (HTRF enzyme assay). As for the experimental part: as §1, §2, §3

T1 sequence (O95271 1023-1327): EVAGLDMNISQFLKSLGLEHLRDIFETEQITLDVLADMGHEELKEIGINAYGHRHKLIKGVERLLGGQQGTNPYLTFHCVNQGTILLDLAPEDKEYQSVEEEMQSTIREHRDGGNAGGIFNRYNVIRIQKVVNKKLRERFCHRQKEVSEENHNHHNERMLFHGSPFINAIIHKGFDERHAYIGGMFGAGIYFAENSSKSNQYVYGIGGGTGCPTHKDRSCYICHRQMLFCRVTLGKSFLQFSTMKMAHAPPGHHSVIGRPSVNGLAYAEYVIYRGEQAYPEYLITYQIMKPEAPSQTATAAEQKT
T3 sequence (Q9H2K2 873-1166): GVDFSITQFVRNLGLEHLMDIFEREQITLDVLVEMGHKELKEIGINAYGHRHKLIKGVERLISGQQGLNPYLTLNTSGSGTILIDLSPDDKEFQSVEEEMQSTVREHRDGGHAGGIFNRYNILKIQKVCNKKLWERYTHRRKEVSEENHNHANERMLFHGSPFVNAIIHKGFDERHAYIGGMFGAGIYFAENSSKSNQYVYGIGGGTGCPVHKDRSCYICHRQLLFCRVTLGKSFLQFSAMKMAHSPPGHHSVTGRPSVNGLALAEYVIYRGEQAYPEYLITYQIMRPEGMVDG
T2 sequence (P09874 whole entry): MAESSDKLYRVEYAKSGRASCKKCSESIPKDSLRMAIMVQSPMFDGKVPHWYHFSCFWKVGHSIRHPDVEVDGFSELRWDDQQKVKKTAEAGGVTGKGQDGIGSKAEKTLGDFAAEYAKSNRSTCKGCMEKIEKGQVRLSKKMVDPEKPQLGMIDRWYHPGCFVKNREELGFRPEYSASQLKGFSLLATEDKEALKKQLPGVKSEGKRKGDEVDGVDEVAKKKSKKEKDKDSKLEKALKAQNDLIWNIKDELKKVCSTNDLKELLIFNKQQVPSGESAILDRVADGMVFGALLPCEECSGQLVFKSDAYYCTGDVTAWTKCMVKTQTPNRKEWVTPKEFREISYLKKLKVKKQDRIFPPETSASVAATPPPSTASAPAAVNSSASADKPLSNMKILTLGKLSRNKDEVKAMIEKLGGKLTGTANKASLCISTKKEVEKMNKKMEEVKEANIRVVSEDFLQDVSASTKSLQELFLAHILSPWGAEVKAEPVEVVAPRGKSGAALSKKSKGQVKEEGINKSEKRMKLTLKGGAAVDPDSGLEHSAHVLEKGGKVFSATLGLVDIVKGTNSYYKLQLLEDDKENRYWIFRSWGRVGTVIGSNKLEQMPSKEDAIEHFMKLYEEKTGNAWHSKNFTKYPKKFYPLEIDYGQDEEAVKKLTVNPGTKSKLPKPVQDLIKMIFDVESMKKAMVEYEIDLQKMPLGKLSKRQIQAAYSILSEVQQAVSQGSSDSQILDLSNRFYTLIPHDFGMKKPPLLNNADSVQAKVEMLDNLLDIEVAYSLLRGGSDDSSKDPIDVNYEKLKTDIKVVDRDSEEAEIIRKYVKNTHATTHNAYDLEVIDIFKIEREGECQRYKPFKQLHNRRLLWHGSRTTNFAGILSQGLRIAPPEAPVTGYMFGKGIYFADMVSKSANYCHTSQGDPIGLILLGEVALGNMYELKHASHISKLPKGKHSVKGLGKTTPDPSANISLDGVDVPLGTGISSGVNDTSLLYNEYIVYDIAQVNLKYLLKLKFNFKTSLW

For the compound `Cc1cc2c(=O)[nH]c(-c3ccc(-c4cnn(C)c4)cc3)nn2c1` [Compound A13, 6-methyl-2-[4-(1-methylpyrazol-4-yl)phenyl]-3H-pyrrolo-[2,1-f][1,2,4]triazin-4-one], the figures for the IC50 (in assay [1]; against His-tagged Parp-1; in assay [2]) were < 300 nM, 3000 to 50000 nM and < 300 nM, respectively.

With `CC(C)(OCCO)c1ccc(-c2nn3cccc3c(=O)[nH]2)cc1` [Compound A15, 2-{4-[1-(2-hydroxy-ethoxy)-1-methyl-ethyl]-phenyl}-3H-pyrrolo[2,1-f][1,2,4]triazin-4-one], the 50% inhibitory concentration (IC50) in assay [1] is < 300 nM; against His-tagged Parp-1, 3000 to 50000 nM; in assay [2] it was < 300 nM.

`CC(C)(O)c1ccc(-c2nn3cc(F)cc3c(=O)[nH]2)cc1` [Compound A12, 6-fluoro-2-[4-(1-hydroxy-1-methyl-ethyl)phenyl]-3H-pyrrolo[2,1-f][1,2,4]triazin-4-one]: the IC50 in assay [1] was < 300 nM; against His-tagged Parp-1, 300 to 3000 nM; in assay [2], < 300 nM.

With `Cc1cc2c(=O)[nH]c(-c3ccc(C(C)(C)O)cc3)nn2c1` [Compound A11, 2-[4-(1-hydroxy-1-methyl-ethyl)phenyl]-6-methyl-3H-pyrrolo[2,1-f][1,2,4]triazin-4-one], the IC50 in assay [1] is < 300 nM; on His-tagged Parp-1, 300 to 3000 nM; in assay [2], < 300 nM.

Consider `CC(C)(O)c1ccc(-c2nn3cccc3c(=O)[nH]2)cc1` [Compound A5, 2-[4-(1-hydroxy-1-methyl-ethyl)-phenyl]-3H-pyrrolo[2,1-f][1,2,4]triazin-4-one], for which the IC50 was < 300 nM in assay [1], 3000 to 50000 nM against His-tagged Parp-1 and < 300 nM in assay [2].

With `Cn1cc(-c2ccc(-c3nn4cccc4c(=O)[nH]3)cc2)cn1` [Compound A7, 2-[4-(1-methyl-1H-pyrazol-4-yl)-phenyl]-3H-pyrrolo[2,1-f][1,2,4]triazin-4-one], the IC50 was < 300 nM in assay [1], 3000 to 50000 nM at His-tagged Parp-1 and 300 to 3000 nM in assay [2].

Regarding `O=c1[nH]c(-c2ccc(C3(O)CCCC3)cc2)nn2cccc12` [Compound A21, 2-[4-(1-hydroxy-cyclopentyl)-phenyl]-3H-pyrrolo[2,1-f][1,2,4]-triazin-4-one], the figures for the half-maximal inhibitory concentration (IC50) (in assay [1]; at His-tagged Parp-1; in assay [2]) were < 300 nM, 3000 to 50000 nM and < 300 nM, respectively.

Regarding `CC(C)(O)c1ccc(-c2nn3cc(Cl)cc3c(=O)[nH]2)cc1` [Compound A18, 6-chloro-2-[4-(1-hydroxy-1-methyl-ethyl)-phenyl]-3H-pyrrolo[2,1-f][1,2,4]triazin-4-one], the IC50 was < 300 nM in assay [1], 3000 to 50000 nM at His-tagged Parp-1 and < 300 nM in assay [2].

In the case of `CCC(O)(CC)c1ccc(-c2nn3cccc3c(=O)[nH]2)cc1` [Compound A14, 2-[4-(1-ethyl-1-hydroxy-propyl)-phenyl]-3H-pyrrolo[2,1-f][1,2,4]triazin-4-one], the IC50 in assay [1] was < 300 nM; against His-tagged Parp-1, 3000 to 50000 nM; in assay [2], < 300 nM.

As a reminder, the IC50 is the concentration at which inhibition is half-maximal. The low end stands for greater potency, the high end for weaker potency.
